# Measured values from ChEMBL document CHEMBL1145735, “Synthesis and antitumor activity of novel C-8 ester derivatives of leinamycin” (Bioorg Med Chem Lett, 2003).
# How the values were obtained:
# HeLa = test: In vitro antiproliferative activity against HeLa S3 cells.; assay type: functional, cell-based; conditions: Homo sapiens
# Mus musculus [1] = test: In vivo antitumor activity against murine sarcoma 180 cells at an optimal dose of 8 mg/kg.; assay type: functional
# Mus musculus [2] = test: In vivo antitumor activity against lymphocytic leukemia P388 in mice expressed as maximal increase in life span at an optimal dose of 16 mg/kg.; assay type: functional
# Mus musculus [3] = test: In vivo antitumor activity against lymphocytic leukemia P388 in mice expressed as maximal increase in life span at an optimal dose of 8 mg/kg.; assay type: functional
# Mus musculus [4] = test: Antitumor activity against human Lu-65 tumor cells, at a dose of 5.3 mg/kg upon i.v. administration in nude mice; assay type: functional; conditions: route intravenous
# Mus musculus [5] = test: Antitumor activity against human A-2780 tumor cells, at a dose of 5.3 mg/kg upon i.v. administration in nude mice; assay type: functional; conditions: route intravenous
# Mus musculus [6] = test: In vivo antitumor activity against murine sarcoma 180 cells at an optimal dose of 4 mg/kg.; assay type: functional
# Mus musculus [7] = test: Antitumor activity against human HCT116 tumor cells, at a dose of 5.3 mg/kg upon i.v. administration in nude mice; assay type: functional; conditions: route intravenous
# Mus musculus [8] = test: In vivo antitumor activity against lymphocytic leukemia P388 in mice expressed as maximal increase in life span at an optimal dose of 2 mg/kg.; assay type: functional
# Mus musculus [9] = test: In vivo antitumor activity against lymphocytic leukemia P388 in mice expressed as maximal increase in life span at an optimal dose of 4 mg/kg.; assay type: functional
# Mus musculus [10] = test: Antitumor activity against human HCT116 tumor cells, at a dose of 8 mg/kg upon i.v. administration in nude mice; assay type: functional; conditions: route intravenous
# Mus musculus [11] = test: Antitumor activity against human A-2780 tumor cells, at a dose of 8 mg/kg upon i.v. administration in nude mice; assay type: functional; conditions: route intravenous
# Mus musculus [12] = test: Antitumor activity against human Lu-65 tumor cells, at a dose of 8 mg/kg upon i.v. administration in nude mice; assay type: functional; conditions: route intravenous
# Mus musculus [13] = test: In vivo antitumor activity against murine sarcoma 180 cells at an optimal dose of 16 mg/kg.; assay type: functional
# Mus musculus [14] = test: In vivo antitumor activity against murine sarcoma 180 cells at an optimal dose of 2 mg/kg.; assay type: functional
# Mus musculus [15] = test: Antitumor activity against human Lu-65 tumor cells, at a dose of 12 mg/kg upon i.v. administration in nude mice; assay type: functional; conditions: route intravenous
# Mus musculus [16] = test: Antitumor activity against human A-2780 tumor cells, at a dose of 12 mg/kg upon i.v. administration in nude mice; assay type: functional; conditions: route intravenous
smiles,measurement,setting,value
COCCOCCOCCOCCOCC(=O)O[C@@H]1/C=C(\C)CC[C@]2(CC(=O)N[C@@H](C)c3nc(cs3)/C=C\C=C\C1=O)[S+]([O-])SC(=O)[C@]2(C)O (some centres not stated),IC50,HeLa,0.24 µM
same,T/C,Mus musculus [1],0.51
C/C1=C\[C@@H](OC(=O)CNC(=O)CNC(=O)c2ccccc2)C(=O)/C=C/C=C/c2csc(n2)[C@@H](C)N2C(=O)C[C@@]([C@@](C)(O)C(=O)SCc3oc(=O)oc3C)(CC1)[S+]2[O-] (some centres not stated),ILS at 16 mg/kg,Mus musculus [2],90%
same,IC50,HeLa,0.032 µM
same,T/C,Mus musculus [1],0.46
C/C1=C\[C@@H](OC(=O)CNC=O)C(=O)/C=C/C=C\c2csc(n2)[C@H](C)NC(=O)C[C@@]2(CC1)[S+]([O-])SC(=O)[C@]2(C)O (some centres not stated),ILS at 8 mg/kg,Mus musculus [3],56%
same,T/C,Mus musculus [4],0.43
same,IC50,HeLa,0.011 µM
same,T/C,Mus musculus [5],0.29
same,T/C,Mus musculus [6],0.46
same,T/C,Mus musculus [7],0.62
C/C1=C\[C@@H](OC(=O)CNC(=O)CNC(=O)c2ccccc2)C(=O)/C=C/C=C\c2csc(n2)[C@H](C)NC(=O)C[C@@]2(CC1)[S+]([O-])SC(=O)[C@]2(C)O (some centres not stated),ILS at 8 mg/kg,Mus musculus [3],78%
same,IC50,HeLa,0.0087 µM
same,T/C,Mus musculus [1],0.42
COCCOCCOCC(=O)O[C@@H]1/C=C(\C)CC[C@]2([C@@](C)(O)C(=O)SCc3oc(=O)oc3C)CC(=O)N([C@H](C)c3nc(cs3)/C=C/C=C/C1=O)[S+]2[O-] (some centres not stated),T/C,Mus musculus [4],0.35
same,IC50,HeLa,0.0055 µM
same,ILS at 2 mg/kg,Mus musculus [8],54%
same,T/C,Mus musculus [1],0.39
COCCOCC(=O)OCCOCCOCC(=O)O[C@@H]1/C=C(\C)CC[C@]2(CC(=O)N[C@@H](C)c3nc(cs3)/C=C\C=C\C1=O)[S+]([O-])SC(=O)[C@]2(C)O (some centres not stated),T/C,Mus musculus [1],0.12
C/C1=C\[C@@H](OC(=O)[C@@H](C)NC(=O)OCc2ccccc2)C(=O)/C=C/C=C\c2csc(n2)[C@H](C)NC(=O)C[C@@]2(CC1)[S+]([O-])SC(=O)[C@]2(C)O (some centres not stated),ILS at 4 mg/kg,Mus musculus [9],52%
same,IC50,HeLa,0.045 µM
same,T/C,Mus musculus [6],0.56
C/C1=C\[C@@H](OC(=O)CNC(=O)CNC(=O)OCc2ccccc2)C(=O)/C=C/C=C/c2csc(n2)[C@@H](C)N2C(=O)C[C@@]([C@@](C)(O)C(=O)SCc3oc(=O)oc3C)(CC1)[S+]2[O-] (some centres not stated),ILS at 8 mg/kg,Mus musculus [3],64%
same,IC50,HeLa,0.015 µM
same,T/C,Mus musculus [6],0.61
C/C1=C\[C@@H](OC(=O)CNC(=O)CN(C)C(=O)OCc2ccccc2)C(=O)/C=C/C=C\c2csc(n2)[C@H](C)NC(=O)C[C@@]2(CC1)[S+]([O-])SC(=O)[C@]2(C)O (some centres not stated),ILS at 4 mg/kg,Mus musculus [9],70%
same,IC50,HeLa,0.067 µM
same,T/C,Mus musculus [1],0.61
C/C1=C\[C@@H](OC(=O)COCCOCCO)C(=O)/C=C/C=C\c2csc(n2)[C@H](C)NC(=O)C[C@@]2(CC1)[S+]([O-])SC(=O)[C@]2(C)O (some centres not stated),IC50,HeLa,0.025 µM
same,T/C,Mus musculus [6],0.36
C/C1=C\[C@@H](OC(=O)CNC(=O)CCNC(=O)OC(C)(C)C)C(=O)/C=C/C=C\c2csc(n2)[C@H](C)NC(=O)C[C@@]2(CC1)[S+]([O-])SC(=O)[C@]2(C)O (some centres not stated),ILS at 8 mg/kg,Mus musculus [3],67%
same,IC50,HeLa,0.17 µM
same,T/C,Mus musculus [1],0.45
C/C1=C\[C@@H](OC(=O)CCNC(=O)OCc2ccccc2)C(=O)/C=C/C=C\c2csc(n2)[C@H](C)NC(=O)C[C@@]2(CC1)[S+]([O-])SC(=O)[C@]2(C)O (some centres not stated),ILS at 4 mg/kg,Mus musculus [9],53%
same,IC50,HeLa,0.04 µM
same,T/C,Mus musculus [6],0.79
C/C1=C\[C@@H](OC(=O)CNC(=O)CNC(=O)OC(C)(C)C)C(=O)/C=C/C=C\c2csc(n2)[C@H](C)NC(=O)C[C@@]2(CC1)[S+]([O-])SC(=O)[C@]2(C)O (some centres not stated),ILS at 8 mg/kg,Mus musculus [3],46%
same,T/C,Mus musculus [10],0.7
same,T/C,Mus musculus [11],0.73
same,IC50,HeLa,0.02 µM
same,T/C,Mus musculus [12],0.43
same,T/C,Mus musculus [1],0.22
C/C1=C\[C@@H](OC(=O)CN(C)C(=O)OCc2ccccc2)C(=O)/C=C/C=C\c2csc(n2)[C@H](C)NC(=O)C[C@@]2(CC1)[S+]([O-])SC(=O)[C@]2(C)O (some centres not stated),ILS at 4 mg/kg,Mus musculus [9],48%
same,IC50,HeLa,0.052 µM
same,T/C,Mus musculus [1],0.74
COCCOCCOCCOCC(=O)O[C@@H]1/C=C(\C)CC[C@]2(CC(=O)N[C@@H](C)c3nc(cs3)/C=C\C=C\C1=O)[S+]([O-])SC(=O)[C@]2(C)O (some centres not stated),IC50,HeLa,0.61 µM
same,T/C,Mus musculus [6],0.82
C/C1=C\[C@@H](OC(=O)CNC(=O)[C@H](NC(=O)OCc2ccccc2)C(C)C)C(=O)/C=C/C=C\c2csc(n2)[C@H](C)NC(=O)C[C@@]2(CC1)[S+]([O-])SC(=O)[C@]2(C)O (some centres not stated),ILS at 8 mg/kg,Mus musculus [3],67%
same,IC50,HeLa,0.016 µM
same,T/C,Mus musculus [1],0.56
C/C1=C\[C@@H](OC(=O)CNC(=O)CCNC(=O)OC(C)(C)C)C(=O)/C=C/C=C/c2csc(n2)[C@@H](C)N2C(=O)C[C@@]([C@@](C)(O)C(=O)SCc3oc(=O)oc3C)(CC1)[S+]2[O-] (some centres not stated),ILS at 8 mg/kg,Mus musculus [3],70%
same,T/C,Mus musculus [13],0.23
same,IC50,HeLa,0.012 µM
CC(=O)NCC(=O)O[C@@H]1/C=C(\C)CC[C@]2(CC(=O)N[C@@H](C)c3nc(cs3)/C=C\C=C\C1=O)[S+]([O-])SC(=O)[C@]2(C)O (some centres not stated),T/C,Mus musculus [14],0.67
same,ILS at 4 mg/kg,Mus musculus [9],66%
same,IC50,HeLa,0.013 µM
C/C1=C\[C@@H](OC(=O)CNC(=O)CCNC(=O)OCc2ccccc2)C(=O)/C=C/C=C\c2csc(n2)[C@H](C)NC(=O)C[C@@]2(CC1)[S+]([O-])SC(=O)[C@]2(C)O (some centres not stated),ILS at 16 mg/kg,Mus musculus [2],76%
same,IC50,HeLa,0.02 µM
same,T/C,Mus musculus [1],0.55
COCCOCCOCCOCCOCCOCC(=O)O[C@@H]1/C=C(\C)CC[C@]2(CC(=O)N[C@@H](C)c3nc(cs3)/C=C\C=C\C1=O)[S+]([O-])SC(=O)[C@]2(C)O (some centres not stated),IC50,HeLa,0.011 µM
same,T/C,Mus musculus [12],0.2
same,T/C,Mus musculus [1],0.3
C/C1=C\[C@@H](OC(=O)CNC(=O)[C@@H](C)NC(=O)OCc2ccccc2)C(=O)/C=C/C=C\c2csc(n2)[C@H](C)NC(=O)C[C@@]2(CC1)[S+]([O-])SC(=O)[C@]2(C)O (some centres not stated),ILS at 8 mg/kg,Mus musculus [3],58%
same,T/C,Mus musculus [13],0.61
same,IC50,HeLa,0.034 µM
C/C1=C\[C@@H](OC(=O)CCNC(=O)CCNC(=O)OCc2ccccc2)C(=O)/C=C/C=C\c2csc(n2)[C@H](C)NC(=O)C[C@@]2(CC1)[S+]([O-])SC(=O)[C@]2(C)O (some centres not stated),ILS at 16 mg/kg,Mus musculus [2],62%
same,T/C,Mus musculus [13],0.58
same,IC50,HeLa,0.061 µM
COCCOCCOCCOCCOCCOCCOCC(=O)O[C@@H]1/C=C(\C)CC[C@]2(CC(=O)N[C@@H](C)c3nc(cs3)/C=C\C=C\C1=O)[S+]([O-])SC(=O)[C@]2(C)O (some centres not stated),IC50,HeLa,0.21 µM
COCCOCCOCCOCCOCCOCC(=O)O[C@@H]1/C=C(\C)CC[C@]2([C@@](C)(O)C(=O)SCc3oc(=O)oc3C)CC(=O)N([C@H](C)c3nc(cs3)/C=C/C=C/C1=O)[S+]2[O-] (some centres not stated),IC50,HeLa,0.043 µM
same,T/C,Mus musculus [1],0.58
C/C1=C\[C@@H](OC(=O)CNC(=O)CNC(=O)OC(C)(C)C)C(=O)/C=C/C=C/c2csc(n2)[C@@H](C)N2C(=O)C[C@@]([C@@](C)(O)C(=O)SCc3oc(=O)oc3C)(CC1)[S+]2[O-] (some centres not stated),ILS at 4 mg/kg,Mus musculus [9],39%
same,IC50,HeLa,0.014 µM
same,T/C,Mus musculus [15],0.33
same,T/C,Mus musculus [1],0.39
same,T/C,Mus musculus [16],0.51
COCCOCCOCC(=O)O[C@@H]1/C=C(\C)CC[C@]2(CC(=O)N[C@@H](C)c3nc(cs3)/C=C\C=C\C1=O)[S+]([O-])SC(=O)[C@]2(C)O (some centres not stated),IC50,HeLa,0.066 µM
same,T/C,Mus musculus [6],0.3
C/C1=C\[C@@H](O)C(=O)/C=C/C=Cc2csc(n2)[C@@H](C)N2C(=O)C[C@@]([C@@](C)(O)C(=O)SCc3oc(=O)oc3C)(CC1)[S+]2[O-] (some centres not stated),T/C,Mus musculus [14],0.67
same,ILS at 2 mg/kg,Mus musculus [8],65%
C/C1=C\[C@@H](OC(=O)CCNC(=O)CNC(=O)OCc2ccccc2)C(=O)/C=C/C=C\c2csc(n2)[C@H](C)NC(=O)C[C@@]2(CC1)[S+]([O-])SC(=O)[C@]2(C)O (some centres not stated),ILS at 16 mg/kg,Mus musculus [2],71%
same,T/C,Mus musculus [13],0.69
same,IC50,HeLa,0.15 µM
C/C1=C\[C@@H](OC(=O)COCCOCCOCCOCCO)C(=O)/C=C/C=C\c2csc(n2)[C@H](C)NC(=O)C[C@@]2(CC1)[S+]([O-])SC(=O)[C@]2(C)O (some centres not stated),T/C,Mus musculus [1],0.18
C/C1=C\[C@@H](OC(=O)CNC(=O)OCc2ccccc2)C(=O)/C=C/C=C/c2csc(n2)[C@@H](C)N2C(=O)C[C@@]([C@@](C)(O)C(=O)SCc3oc(=O)oc3C)(CC1)[S+]2[O-] (some centres not stated),ILS at 8 mg/kg,Mus musculus [3],98%
same,T/C,Mus musculus [13],0.36
same,IC50,HeLa,0.004 µM
